In patent publication US11952368B2, “FAPI dimer compound, FAPI dimer-based positron emission tomography (PET) imaging agent for tumor diagnosis, and preparation method and use thereof” (XIAMEN UNIVERSITY, priority 2021, dated 2024):

Experiments:
[1] = Distribution, dosimetry and safety in healthy volunteers (PET/CT, OLINDA/EXM); type: in vivo, human
Experimental: This experiment was approved by the Clinical Research Ethics Committee of the First Affiliated Hospital of Xiamen University, and all subjects signed a written informed consent form. A dose of ^68Ga-2PEG(3)-FAPI-dimer for intravenous injection (1.8 MBq to 2.2 MBq [0.05 mCi to 0.06 mCi]/kg) was calculated according to a body weight of a subject. Data were acquired using a hybrid PET/CT scanner (Discovery MI, GE Healthcare, Milwaukee, WI, USA) at 10 min, 30 min, 60 min, and 180 min after intravenous injection. A maximum standard uptake value (SUVmax) was automatically calculated with ROIs drawn on a transaxial image. Safety data, including vital signs (blood pressure, pulse, respiratory rate, and body temperature) and adverse events, were acquired 4 h before and after the ^68Ga-2PEG(3)-FAPI-dimer was injected. […] The time-activity curve fitting and subsequent dose calculation were conducted using OLINDA/EXM v.1.1.

FAP on CAFs = molecular target: T1, FAP on CAFs (Homo sapiens, UniProt Q12884); assay: FAP binding assay (radioligand competition) on CAFs; details: radiolabeled compound co-incubated 60 min with corresponding unlabeled FAPI derivative
T1 construct: FAP-expressing CAFs were inoculated in a 24-well plate; endogenous in cells; host or cells: cancer-associated fibroblasts (CAFs)
T1 sequence (Q12884 1-760): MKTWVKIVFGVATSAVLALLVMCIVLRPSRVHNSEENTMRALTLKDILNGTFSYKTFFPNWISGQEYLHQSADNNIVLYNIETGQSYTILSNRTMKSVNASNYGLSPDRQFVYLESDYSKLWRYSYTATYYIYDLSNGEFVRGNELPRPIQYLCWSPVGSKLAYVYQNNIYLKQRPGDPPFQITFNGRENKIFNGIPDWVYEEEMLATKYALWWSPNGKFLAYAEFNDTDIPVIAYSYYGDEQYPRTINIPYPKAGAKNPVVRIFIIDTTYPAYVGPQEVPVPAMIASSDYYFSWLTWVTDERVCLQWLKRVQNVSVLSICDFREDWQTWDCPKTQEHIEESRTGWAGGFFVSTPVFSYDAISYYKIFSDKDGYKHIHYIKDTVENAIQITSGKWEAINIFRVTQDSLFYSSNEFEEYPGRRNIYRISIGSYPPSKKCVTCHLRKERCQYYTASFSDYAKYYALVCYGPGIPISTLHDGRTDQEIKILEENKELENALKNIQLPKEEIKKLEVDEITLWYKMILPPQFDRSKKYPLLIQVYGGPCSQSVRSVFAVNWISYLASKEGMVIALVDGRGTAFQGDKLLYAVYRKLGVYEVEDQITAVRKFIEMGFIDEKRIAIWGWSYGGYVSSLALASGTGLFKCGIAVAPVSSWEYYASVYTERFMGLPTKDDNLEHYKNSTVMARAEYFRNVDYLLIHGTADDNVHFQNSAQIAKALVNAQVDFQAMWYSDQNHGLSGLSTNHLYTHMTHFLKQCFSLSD
Experimental: FAP-expressing CAFs were inoculated in a 24-well plate and cultivated with a 10% (volume fraction) FBS-containing 1640 medium for 48 h before the experiment until a cell density was about 80% to 90%; the medium was changed to an FBS-free 1640 medium; and the ^68Ga-2PEG(3)-FAPI-dimer, ^68Ga-FAPI-46, or ^68Ga-2PEG(3)-FAPI-dimer+11.3 nmol FAPI-46 (for the blocking experiment) was added to the 24-well plate and incubated, with predetermined intervals of 10 min, 30 min, 60 min, 90 min, and 120 min. The FAP binding assay was conducted after a radiolabeled compound and a corresponding unlabeled FAPI derivative (1.27×10^−4-10^−13 mol/L of 2PEG(3)-FAPI-dimer was added to ^68Ga-2PEG(3)-FAPI-dimer; and 2.83×10^−4-1×10^−13 mol/L of FAPI-46 was added to ^68Ga-FAPI-46) were co-incubated for 60 min. A half-inhibitory concentration (IC50s) was calculated by using GraphPad Prism to fit data through nonlinear regression. In each step of the experiment, cells were washed twice with 1 mL of PBS. Finally, CAFs were lysed with 0.5 mL of a 1 mol/L NaOH aqueous solution to conduct radioactive counting with a gamma counter. 3 parallel replicates were set for each experiment.

FAP-expressing CAFs = assay: Cellular uptake and cellular uptake blockade in CAFs; type: cell-based, human
Experimental: A human HCC cell line Huh7 was purchased from the National Experimental Cell Resource Sharing Platform, China. CAFs were extracted from a surgical specimen of an HCC patient.
After the CAFs were verified as cells with high FAP expression, the next experiment was conducted. […]
FAP-expressing CAFs were inoculated in a 24-well plate and cultivated with a 10% (volume fraction) FBS-containing 1640 medium for 48 h before the experiment until a cell density was about 80% to 90%; the medium was changed to an FBS-free 1640 medium; and the ^68Ga-2PEG(3)-FAPI-dimer, ^68Ga-FAPI-46, or ^68Ga-2PEG(3)-FAPI-dimer+11.3 nmol FAPI-46 (for the blocking experiment) was added to the 24-well plate and incubated, with predetermined intervals of 10 min, 30 min, 60 min, 90 min, and 120 min. […] A half-inhibitory concentration (IC50s) was calculated by using GraphPad Prism to fit data through nonlinear regression. […]

[2] = three healthy volunteers, i.v., OLINDA/EXM

CN(CCCN1CCN(C(=O)COCCOCCOCCNC(=O)CCC(=O)N[C@@H](CCCCNC(=O)CN2CCN(CC(=O)[O-])CCN(CC(=O)[O-])CCN(CC(=O)[O-])CC2)C(=O)NCCOCCOCCOCC(=O)N2CCN(CCCN(C)c3ccc4nccc(C(=O)NCC(=O)N5CC(F)(F)C[C@H]5C#N)c4c3)CC2)CC1)c1ccc2nccc(C(=O)NCC(=O)N3CC(F)(F)C[C@H]3C#N)c2c1.[68Ga+3] [^68Ga-2PEG(3)-FAPI-dimer]
discomfort symptoms after injection (vital signs, adverse events) ([1]; i.v. 1.8 MBq to 2.2 MBq/kg, 4 h before and after injection): did not undergo any discomfort symptoms
Average value, Adrenal gland (dosimetry) [1, 2]: 7.98E−05 mSv/MBq
Average value, Ascending colon wall (dosimetry) [1, 2]: 2.79E−05 mSv/MBq
Average value, Bladder wall (dosimetry) [1, 2]: 1.04E−03 mSv/MBq
Average value, Brain (dosimetry) [1, 2]: 3.16E−05 mSv/MBq
Average value, Breast (dosimetry) [1, 2]: 6.36E−05 mSv/MBq
Average value, Descending colon wall (dosimetry) [1, 2]: 9.22E−04 mSv/MBq
Average value, Effective dose [1, 2]: 1.19E−02 mSv/MBq
Average value, Effective dose equivalent [1, 2]: 1.69E−02 mSv/MBq
Average value, Kidney (dosimetry) [1, 2]: 1.01E−04 mSv/MBq
Average value, Liver (dosimetry) [1, 2]: 1.65E−03 mSv/MBq
Average value, Lung (dosimetry) [1, 2]: 1.36E−03 mSv/MBq
Average value, Muscle (dosimetry) [1, 2]: 4.19E−05 mSv/MBq
Average value, Osteoblast (dosimetry) [1, 2]: 6.47E−05 mSv/MBq
Average value, Ovary (dosimetry) [1, 2]: 5.94E−04 mSv/MBq
Average value, Pancreas (dosimetry) [1, 2]: 7.61E−04 mSv/MBq
Average value, Red bone marrow (dosimetry) [1, 2]: 1.12E−03 mSv/MBq
Average value, Skin (dosimetry) [1, 2]: 1.22E−05 mSv/MBq
Average value, Small intestine (dosimetry) [1, 2]: 5.18E−05 mSv/MBq
Average value, Spleen (dosimetry) [1, 2]: 1.58E−04 mSv/MBq
Average value, Stomach wall (dosimetry) [1, 2]: 7.12E−04 mSv/MBq
Average value, Thymus (dosimetry) [1, 2]: 9.64E−06 mSv/MBq
Average value, Thyroid (dosimetry) [1, 2]: 3.11E−03 mSv/MBq
Average value, Uterus (dosimetry) [1, 2]: 1.27E−05 mSv/MBq
IC50 (FAP on CAFs): 3.57 nM
cell uptake blockade: binding to FAP blocked by FAPI-46 precursor (FAP-expressing CAFs; +11.3 nmol FAPI-46): can significantly block
absorption value relative to ^68Ga-FAPI-46 monomer in CAFs (FAP-expressing CAFs; incubation 10 min to 120 min): about twice
